Reference: patent publication US9695155B2, “Herbicidal substituted pyrimidinyloxy benzene compounds” (E. I. DU PONT DE NEMOURS AND COMPANY, priority 2013, dated 2017)

How the values were obtained:
kochia [1] = experiment: Test A preemergence; format: in vivo, Kochia scoparia; settings: 0 to 100 scale where 0 is no effect and 100 is complete control
Summary of the method: (§1)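 Visual injury scored 0–100 (100 = complete control) against untreated controls about 10 days after treatment in a greenhouse. Test chemicals, formulated with surfactant in non-phytotoxic solvent, were sprayed on soil preemergence or on 2-10 cm, one- to two-leaf plants postemergence.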

kochia [2] = experiment: Test A postemergence; format: in vivo, Kochia scoparia; settings: 0 to 100 scale where 0 is no effect and 100 is complete control
Summary of the method: as §1

Italian ryegrass = experiment: Test A postemergence; format: in vivo, Lolium multiflorum; settings: 0 to 100 scale where 0 is no effect and 100 is complete control
Summary of the method: as §1

blackgrass [3] = experiment: Test A postemergence; format: in vivo, Alopecurus myosuroides; settings: 0 to 100 scale where 0 is no effect and 100 is complete control
Summary of the method: as §1

galium [4] = experiment: Test A postemergence; format: in vivo, Galium aparine; settings: 0 to 100 scale where 0 is no effect and 100 is complete control
Summary of the method: as §1

blackgrass [5] = experiment: Test C preemergence; format: in vivo, Alopecurus myosuroides; settings: Alopecurus myosuroides, pre-emergence
Summary of the method: (§2)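 Sown in loam/sand → sprayed pre-emergence; or grown to 1–4 leaves in peat mix → sprayed post-emergence. Same solvent/surfactant formulation both ways. Greenhouse 13–15 d. Score 0–100 visual.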

galium [6] = experiment: Test C preemergence; format: in vivo, Galium aparine; settings: Galium, pre-emergence
Summary of the method: as §2

large (Lg) crabgrass = experiment: Test C preemergence; format: in vivo, Digitaria sanguinalis; settings: Digitaria sanguinalis, pre-emergence
Summary of the method: as §2

giant foxtail = experiment: Test C preemergence; format: in vivo, Setaria faberii; settings: Setaria faberi, pre-emergence
Summary of the method: as §2

lambsquarters = experiment: Test C preemergence; format: in vivo, Chenopodium album; settings: Chenopodium album, pre-emergence
Summary of the method: as §2

morningglory = experiment: Test C preemergence; format: in vivo, Ipomoea coccinea; settings: Ipomoea, pre-emergence
Summary of the method: as §2

pigweed = experiment: Test C preemergence; format: in vivo, Amaranthus retroflexus; settings: Amaranthus retroflexus, pre-emergence
Summary of the method: as §2

ragweed = experiment: Test C preemergence; format: in vivo, Ambrosia elatior; settings: Ambrosia artemisiifolia, pre-emergence
Summary of the method: as §2

soybean = experiment: Test C preemergence; format: in vivo, Glycine max; settings: Glycine max, pre-emergence
Summary of the method: as §2

barnyardgrass = experiment: Test C preemergence; format: in vivo, Echinochloa crus-galli; settings: Echinochloa crus-galli, pre-emergence
Summary of the method: as §2

oilseed rape = experiment: Test C preemergence; format: in vivo, Brassica napus; settings: Brassica napus, pre-emergence
Summary of the method: as §2

waterhemp = experiment: Test C preemergence; format: in vivo, Amaranthus rudis; settings: Amaranthus tuberculatus, pre-emergence
Summary of the method: as §2

velvetleaf = experiment: Test C preemergence; format: in vivo, Abutilon theophrasti; settings: Abutilon theophrasti, pre-emergence
Summary of the method: as §2

SMILES: N#Cc1cccc(Oc2ncc(Cl)cn2)c1-n1cc(SC(F)(F)F)cn1 [Compound 134, 3-[(5-chloro-2-pyrimidinyl)oxy]-2-[4-(trifluoromethylthio)-1-pyrazolyl]benzonitrile]
- Plant response rating, Kochia (kochia [1]; 125 g ai/ha): 100
- Kochia plant response rating (kochia [1]; 500 g ai/ha): 100
- Kochia plant response rating (kochia [2]; 125 g ai/ha): 90
- Plant response rating, Kochia (kochia [2]; 500 g ai/ha): 100
- Ryegrass, Italian plant response rating (Italian ryegrass; 125 g ai/ha): 50
- Plant response rating, Ryegrass, Italian (Italian ryegrass; 500 g ai/ha): 100
- Blackgrass plant response rating (blackgrass [3]; 125 g ai/ha): 30
- Plant response rating, Blackgrass (blackgrass [3]; 500 g ai/ha): 90
- Galium plant response rating (galium [4]; 125 g ai/ha): 100
- Plant response rating, Galium (galium [4]; 500 g ai/ha): 100
- pest or weed control at 16 g/ha (blackgrass [5]; 16 g ai/ha, preemergence, scale 0 to 100 (0 no effect, 100 complete control), read-out: Blackgrass plant response rating): 0%
- pest or weed control at 62 g/ha (blackgrass [5]; 62 g ai/ha, preemergence, scale 0 (no effect) to 100 (complete control), read-out: Blackgrass plant response rating): 85%
- pest or weed control at 125 g/ha (blackgrass [5]; 125 g ai/ha, preemergence, scale 0 (no effect) to 100 (complete control), read-out: Blackgrass plant response rating): 98%
- pest or weed control at 31 g/ha (blackgrass [5]; Preemergence, 31 g ai/ha, scale 0 to 100, 0 no effect, 100 complete control, read-out: Plant response rating, Blackgrass): 45%
- pest or weed control at 16 g/ha (galium [6]; 16 g ai/ha, preemergence, scale 0 to 100 (0 no effect, 100 complete control), read-out: Galium plant response rating): 0%
- pest or weed control at 62 g/ha (galium [6]; 62 g ai/ha, preemergence, scale 0 (no effect) to 100 (complete control), read-out: Galium plant response rating): 90%
- pest or weed control at 125 g/ha (galium [6]; 125 g ai/ha, preemergence, scale 0 (no effect) to 100 (complete control), read-out: Galium plant response rating): 98%
- pest or weed control at 31 g/ha (galium [6]; Preemergence, 31 g ai/ha, scale 0 to 100, 0 no effect, 100 complete control, read-out: Plant response rating, Galium): 0%
- pest or weed control at 16 g/ha (large (Lg) crabgrass; 16 g ai/ha, preemergence, scale 0 to 100 (0 no effect, 100 complete control), read-out: Crabgrass, Large plant response rating): 60%
- pest or weed control at 62 g/ha (large (Lg) crabgrass; 62 g ai/ha, preemergence, scale 0 (no effect) to 100 (complete control), read-out: Crabgrass, Large plant response rating): 98%
- pest or weed control at 125 g/ha (large (Lg) crabgrass; 125 g ai/ha, preemergence, scale 0 (no effect) to 100 (complete control), read-out: Crabgrass, Large plant response rating): 100%
- pest or weed control at 31 g/ha (large (Lg) crabgrass; Preemergence, 31 g ai/ha, scale 0 to 100, 0 no effect, 100 complete control, read-out: Plant response rating, Crabgrass, Large): 98%
- pest or weed control at 16 g/ha (giant foxtail; 16 g ai/ha, preemergence, scale 0 to 100 (0 no effect, 100 complete control), read-out: Foxtail, Giant plant response rating): 10%
- pest or weed control at 62 g/ha (giant foxtail; 62 g ai/ha, preemergence, scale 0 (no effect) to 100 (complete control), read-out: Foxtail, Giant plant response rating): 100%
- pest or weed control at 125 g/ha (giant foxtail; 125 g ai/ha, preemergence, scale 0 (no effect) to 100 (complete control), read-out: Foxtail, Giant plant response rating): 100%
- pest or weed control at 31 g/ha (giant foxtail; Preemergence, 31 g ai/ha, scale 0 to 100, 0 no effect, 100 complete control, read-out: Plant response rating, Foxtail, Giant): 65%
- pest or weed control at 16 g/ha (lambsquarters; 16 g ai/ha, preemergence, scale 0 to 100 (0 no effect, 100 complete control), read-out: Lambsquarters plant response rating): 60%
- pest or weed control at 62 g/ha (lambsquarters; 62 g ai/ha, preemergence, scale 0 (no effect) to 100 (complete control), read-out: Lambsquarters plant response rating): 100%
- pest or weed control at 125 g/ha (lambsquarters; 125 g ai/ha, preemergence, scale 0 (no effect) to 100 (complete control), read-out: Lambsquarters plant response rating): 100%
- pest or weed control at 31 g/ha (lambsquarters; Preemergence, 31 g ai/ha, scale 0 to 100, 0 no effect, 100 complete control, read-out: Plant response rating, Lambsquarters): 100%
- pest or weed control at 16 g/ha (morningglory; 16 g ai/ha, preemergence, scale 0 to 100 (0 no effect, 100 complete control), read-out: Morningglory plant response rating): 5%
- pest or weed control at 62 g/ha (morningglory; 62 g ai/ha, preemergence, scale 0 (no effect) to 100 (complete control), read-out: Morningglory plant response rating): 35%
- pest or weed control at 125 g/ha (morningglory; 125 g ai/ha, preemergence, scale 0 (no effect) to 100 (complete control), read-out: Morningglory plant response rating): 40%
- pest or weed control at 31 g/ha (morningglory; Preemergence, 31 g ai/ha, scale 0 to 100, 0 no effect, 100 complete control, read-out: Plant response rating, Morningglory): 20%
- pest or weed control at 16 g/ha (pigweed; 16 g ai/ha, preemergence, scale 0 to 100 (0 no effect, 100 complete control), read-out: Pigweed plant response rating): 100%
- pest or weed control at 62 g/ha (pigweed; 62 g ai/ha, preemergence, scale 0 (no effect) to 100 (complete control), read-out: Pigweed plant response rating): 100%
- pest or weed control at 125 g/ha (pigweed; 125 g ai/ha, preemergence, scale 0 (no effect) to 100 (complete control), read-out: Pigweed plant response rating): 100%
- pest or weed control at 31 g/ha (pigweed; Preemergence, 31 g ai/ha, scale 0 to 100, 0 no effect, 100 complete control, read-out: Plant response rating, Pigweed): 100%
- pest or weed control at 16 g/ha (ragweed; 16 g ai/ha, preemergence, scale 0 to 100 (0 no effect, 100 complete control), read-out: Ragweed plant response rating): 0%
- pest or weed control at 62 g/ha (ragweed; 62 g ai/ha, preemergence, scale 0 (no effect) to 100 (complete control), read-out: Ragweed plant response rating): 55%
- pest or weed control at 125 g/ha (ragweed; 125 g ai/ha, preemergence, scale 0 (no effect) to 100 (complete control), read-out: Ragweed plant response rating): 50%
- pest or weed control at 31 g/ha (ragweed; Preemergence, 31 g ai/ha, scale 0 to 100, 0 no effect, 100 complete control, read-out: Plant response rating, Ragweed): 25%
- plant injury at 16 g/ha (soybean; 16 g ai/ha, preemergence, scale 0 to 100 (0 no effect, 100 complete control), read-out: Soybean plant response rating): 0%
- plant injury at 62 g/ha (soybean; 62 g ai/ha, preemergence, scale 0 (no effect) to 100 (complete control), read-out: Soybean plant response rating): 20%
- plant injury at 125 g/ha (soybean; 125 g ai/ha, preemergence, scale 0 (no effect) to 100 (complete control), read-out: Soybean plant response rating): 55%
- plant injury at 31 g/ha (soybean; Preemergence, 31 g ai/ha, scale 0 to 100, 0 no effect, 100 complete control, read-out: Plant response rating, Soybean): 15%
- pest or weed control at 16 g/ha (barnyardgrass; 16 g ai/ha, preemergence, scale 0 to 100 (0 no effect, 100 complete control), read-out: Barnyardgrass plant response rating): 0%
- pest or weed control at 62 g/ha (barnyardgrass; 62 g ai/ha, preemergence, scale 0 (no effect) to 100 (complete control), read-out: Barnyardgrass plant response rating): 60%
- pest or weed control at 125 g/ha (barnyardgrass; 125 g ai/ha, preemergence, scale 0 (no effect) to 100 (complete control), read-out: Barnyardgrass plant response rating): 85%
- pest or weed control at 31 g/ha (barnyardgrass; Preemergence, 31 g ai/ha, scale 0 to 100, 0 no effect, 100 complete control, read-out: Plant response rating, Barnyardgrass): 15%
- plant injury at 16 g/ha (oilseed rape; 16 g ai/ha, preemergence, scale 0 to 100 (0 no effect, 100 complete control), read-out: Oilseed Rape plant response rating): 20%
- plant injury at 62 g/ha (oilseed rape; 62 g ai/ha, preemergence, scale 0 (no effect) to 100 (complete control), read-out: Oilseed Rape plant response rating): 100%
- plant injury at 125 g/ha (oilseed rape; 125 g ai/ha, preemergence, scale 0 (no effect) to 100 (complete control), read-out: Oilseed Rape plant response rating): 100%
- plant injury at 31 g/ha (oilseed rape; Preemergence, 31 g ai/ha, scale 0 to 100, 0 no effect, 100 complete control, read-out: Plant response rating, Oilseed Rape): 45%
- pest or weed control at 16 g/ha (waterhemp; 16 g ai/ha, preemergence, scale 0 to 100 (0 no effect, 100 complete control), read-out: Waterhemp plant response rating): 85%
- pest or weed control at 62 g/ha (waterhemp; 62 g ai/ha, preemergence, scale 0 (no effect) to 100 (complete control), read-out: Waterhemp plant response rating): 100%
- pest or weed control at 125 g/ha (waterhemp; 125 g ai/ha, preemergence, scale 0 (no effect) to 100 (complete control), read-out: Waterhemp plant response rating): 100%
- pest or weed control at 31 g/ha (waterhemp; Preemergence, 31 g ai/ha, scale 0 to 100, 0 no effect, 100 complete control, read-out: Plant response rating, Waterhemp): 100%
- pest or weed control at 16 g/ha (velvetleaf; 16 g ai/ha, preemergence, scale 0 to 100 (0 no effect, 100 complete control), read-out: Velvetleaf plant response rating): 30%
- pest or weed control at 62 g/ha (velvetleaf; 62 g ai/ha, preemergence, scale 0 (no effect) to 100 (complete control), read-out: Velvetleaf plant response rating): 85%
- pest or weed control at 125 g/ha (velvetleaf; 125 g ai/ha, preemergence, scale 0 (no effect) to 100 (complete control), read-out: Velvetleaf plant response rating): 100%
- pest or weed control at 31 g/ha (velvetleaf; Preemergence, 31 g ai/ha, scale 0 to 100, 0 no effect, 100 complete control, read-out: Plant response rating, Velvetleaf): 35%
